Assay [1] concerns the target T1, Latent membrane protein 1 (Human herpesvirus 4 (strain B95-8), UniProt P03230).
T1 sequence (P03230 whole entry): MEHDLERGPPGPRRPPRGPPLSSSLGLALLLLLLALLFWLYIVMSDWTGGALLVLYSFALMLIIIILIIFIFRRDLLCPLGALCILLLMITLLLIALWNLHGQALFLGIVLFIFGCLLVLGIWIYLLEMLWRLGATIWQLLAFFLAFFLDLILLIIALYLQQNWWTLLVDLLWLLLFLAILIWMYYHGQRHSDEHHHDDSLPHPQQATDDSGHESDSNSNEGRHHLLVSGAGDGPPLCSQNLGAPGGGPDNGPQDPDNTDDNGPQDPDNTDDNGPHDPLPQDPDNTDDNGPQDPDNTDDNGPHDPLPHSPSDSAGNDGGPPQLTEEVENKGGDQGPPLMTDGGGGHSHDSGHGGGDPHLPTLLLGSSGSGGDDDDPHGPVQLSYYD
The assay is described as follows: Binding affinity to Epstein Barr virus LMP1 assessed as dissociation constant. Also noted: species or system human gammaherpesvirus 4.

The target of assay [2] is Tyrosine-protein kinase Fyn (Homo sapiens, UniProt P06241). The assay is described as follows: Binding affinity to Fyn (unknown origin) assessed as dissociation constant.
Assay [3] deals with Small ribosomal subunit protein uS2 (Homo sapiens, UniProt P08865). The assay is described as follows: Binding affinity to His-tagged Laminin receptor in human A549 cells assessed as dissociation constant by surface plasmon resonance assay. For orientation: In SPR one partner is held on a chip, and binding of the other changes the refractive index at the surface.

pKd: −log10 of the molar value.

Chain of Tyrosine-protein kinase Fyn (P06241 whole entry): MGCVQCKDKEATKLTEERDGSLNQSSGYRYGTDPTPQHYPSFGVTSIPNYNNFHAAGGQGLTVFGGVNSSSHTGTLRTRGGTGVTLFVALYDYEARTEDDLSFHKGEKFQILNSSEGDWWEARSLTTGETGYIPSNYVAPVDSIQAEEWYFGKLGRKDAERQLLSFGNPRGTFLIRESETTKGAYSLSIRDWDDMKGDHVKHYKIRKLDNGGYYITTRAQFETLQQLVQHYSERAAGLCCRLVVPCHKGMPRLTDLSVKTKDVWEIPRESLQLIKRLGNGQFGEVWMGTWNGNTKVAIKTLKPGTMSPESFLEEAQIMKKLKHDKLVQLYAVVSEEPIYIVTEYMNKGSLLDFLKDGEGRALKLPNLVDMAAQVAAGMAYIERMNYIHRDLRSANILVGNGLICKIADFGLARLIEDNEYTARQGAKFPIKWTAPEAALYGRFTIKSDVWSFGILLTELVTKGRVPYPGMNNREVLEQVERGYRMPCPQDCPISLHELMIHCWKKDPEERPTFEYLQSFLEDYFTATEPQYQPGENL

For the molecule `O=C(O[C@@H]1Cc2c(O)cc(O)cc2O[C@@H]1c1cc(O)c(O)c(O)c1)c1cc(O)c(O)c(O)c1` [EPIGALOCATECHIN GALLATE], the pKd in assay [1] was 6.44; in assay [2], 6.44; in assay [3], 7.40.

One may read the pKd as the negative decadic logarithm of the Kd, by convention in mol/L.

The values are drawn from ChEMBL document CHEMBL5329203, “Target discovery of bioactive natural products with native-compound-coupled CNBr-activated Sepharose 4B beads (NCCB): Applications, mechanisms and outlooks” (Bioorg Med Chem, 2023).
